Experiments:
Format in all cases: in vivo
[1] = test system: ivy-leaved morning glory (Ipomoea hederacea); assay: Test G Pre-Emergence Protocol; details: Ipomoea, pre-emergence, 312 h, evaluated after 13 days
In short: (§1)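 Pots of seeds in standard soil were grown for one day in a glasshouse (24/16 °C day/night, 14 h light, 65% humidity), then sprayed with compound in acetone/water 50:50 with 0.5% Tween 20 at 15.625, 62.5 or 250 g/ha. Damage was scored after 13 days on a 0 (none) to 100 (total) scale.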

[2] = test system: barnyardgrass (Echinochloa crus-galli); assay: Test G Pre-Emergence Protocol; details: Echinochloa crus-galli, pre-emergence, 312 h, evaluated after 13 days
In short: as §1

[3] = test system: redroot pigweed (Amaranthus retroflexus); assay: Test G Pre-Emergence Protocol; details: Amaranthus retroflexus, pre-emergence, 312 h, evaluated after 13 days
In short: as §1

[4] = test system: corn (Zea mays); assay: Test G Pre-Emergence Protocol; details: Zea mays, pre-emergence, 312 h, evaluated after 13 days
In short: as §1

[5] = test system: velvetleaf (Abutilon theophrasti); assay: Test G Pre-Emergence Protocol; details: Abutilon theophrasti, pre-emergence, 312 h, evaluated after 13 days
In short: as §1

[6] = test system: giant foxtail (Setaria faberi); assay: Test G Pre-Emergence Protocol; details: Setaria faberi, pre-emergence, 312 h, evaluated after 13 days
In short: as §1

[7] = test system: ivy-leaved morning glory (Ipomoea hederacea); assay: Test G Post-Emergence Protocol; details: Ipomoea, post-emergence, 312 h
In short: (§2)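 Post-emergence herbicidal damage, scored visually 0–100 at 13 days. Application at 15.625, 62.5 or 250 g/ha onto 8-day-old plants grown under glasshouse control.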

[8] = test system: barnyardgrass (Echinochloa crus-galli); assay: Test G Post-Emergence Protocol; details: Echinochloa crus-galli, post-emergence, 312 h
In short: as §2

[9] = test system: redroot pigweed (Amaranthus retroflexus); assay: Test G Post-Emergence Protocol; details: Amaranthus retroflexus, post-emergence, 312 h
In short: as §2

[10] = test system: corn (Zea mays); assay: Test G Post-Emergence Protocol; details: Zea mays, post-emergence, 312 h
In short: as §2

[11] = test system: velvetleaf (Abutilon theophrasti); assay: Test G Post-Emergence Protocol; details: Abutilon theophrasti, post-emergence, 312 h
In short: as §2

[12] = test system: giant foxtail (Setaria faberi); assay: Test G Post-Emergence Protocol; details: Setaria faberi, post-emergence, 312 h
In short: as §2

Cc1nccc(NC(=O)[C@@H]2C(=O)N(C)C[C@H]2c2ccc(C(F)(F)F)cc2)n1 (racemic) [Compound 1641]
0%: pest or weed control at 15.625 g/ha ([1]; 15.625 g ai/ha, read-out: Morning-glory, Ivy-leaved damage rating (100=total damage to plant; 0=no damage to plant)) | pest or weed control at 62.5 g/ha ([1]; 62.5 g ai/ha, 100=total damage to plant, 0=no damage to plant, read-out: plant damage rating, Morningglory, Ivy-leaved) | pest or weed control at 250 g/ha ([1]; 250 g ai/ha, read-out: Morningglory, Ivy-leaved damage rating (100=total damage to plant; 0=no damage to plant)) | pest or weed control at 15.625 g/ha ([2]; 15.625 g ai/ha, read-out: Barnyard grass damage rating (100=total damage to plant; 0=no damage to plant)) | pest or weed control at 62.5 g/ha ([2]; 62.5 g ai/ha, 100=total damage to plant, 0=no damage to plant, read-out: plant damage rating, Barnyardgrass) | pest or weed control at 250 g/ha ([2]; 250 g ai/ha, read-out: Barnyardgrass damage rating (100=total damage to plant; 0=no damage to plant)) | pest or weed control at 15.625 g/ha ([3]; 15.625 g ai/ha, read-out: Pigweed, Redroot damage rating (100=total damage to plant; 0=no damage to plant)) | pest or weed control at 62.5 g/ha ([3]; 62.5 g ai/ha, 100=total damage to plant, 0=no damage to plant, read-out: plant damage rating, Pigweed, Redroot) | pest or weed control at 250 g/ha ([3]; 250 g ai/ha, read-out: Pigweed, Redroot damage rating (100=total damage to plant; 0=no damage to plant)) | plant injury at 15.625 g/ha ([4]; 15.625 g ai/ha, read-out: Corn damage rating (100=total damage to plant; 0=no damage to plant)) | plant injury at 62.5 g/ha ([4]; 62.5 g ai/ha, 100=total damage to plant, 0=no damage to plant, read-out: plant damage rating, Corn) | plant injury at 250 g/ha ([4]; 250 g ai/ha, read-out: Corn damage rating (100=total damage to plant; 0=no damage to plant)) | pest or weed control at 15.625 g/ha ([5]; 15.625 g ai/ha, read-out: Velvetleaf damage rating (100=total damage to plant; 0=no damage to plant)) | pest or weed control at 62.5 g/ha ([5]; 62.5 g ai/ha, 100=total damage to plant, 0=no damage to plant, read-out: plant damage rating, Velvetleaf) | pest or weed control at 250 g/ha ([5]; 250 g ai/ha, read-out: Velvetleaf damage rating (100=total damage to plant; 0=no damage to plant)) | pest or weed control at 15.625 g/ha ([6]; 15.625 g ai/ha, read-out: Foxtail, Giant damage rating (100=total damage to plant; 0=no damage to plant)) | pest or weed control at 62.5 g/ha ([6]; 62.5 g ai/ha, 100=total damage to plant, 0=no damage to plant, read-out: plant damage rating, Foxtail, Giant) | pest or weed control at 250 g/ha ([6]; 250 g ai/ha, read-out: Foxtail, Giant damage rating (100=total damage to plant; 0=no damage to plant)) | pest or weed control at 15.625 g/ha ([7]; 15.625 g ai/ha, evaluated after 13 days (100=total damage to plant; 0=no damage to plant), read-out: Morningglory, Ivy-leaved damage rating) | pest or weed control at 62.5 g/ha ([7]; 62.5 g ai/ha, evaluated after 13 days, read-out: Morningglory, Ivy-leaved damage rating (100=total damage to plant; 0=no damage to plant)) | pest or weed control at 250 g/ha ([7]; 250 g ai/ha, evaluated after 13 days, read-out: damage to plant, Morningglory, Ivy-leaved (100=total damage to plant; 0=no damage to plant)) | pest or weed control at 15.625 g/ha ([8]; 15.625 g ai/ha, evaluated after 13 days (100=total damage to plant; 0=no damage to plant), read-out: Barnyardgrass damage rating) | pest or weed control at 62.5 g/ha ([8]; 62.5 g ai/ha, evaluated after 13 days, read-out: Barnyardgrass damage rating (100=total damage to plant; 0=no damage to plant)) | pest or weed control at 250 g/ha ([8]; 250 g ai/ha, evaluated after 13 days, read-out: damage to plant, Barnyardgrass (100=total damage to plant; 0=no damage to plant)) | pest or weed control at 15.625 g/ha ([9]; 15.625 g ai/ha, evaluated after 13 days (100=total damage to plant; 0=no damage to plant), read-out: Pigweed, Redroot damage rating) | pest or weed control at 62.5 g/ha ([9]; 62.5 g ai/ha, evaluated after 13 days, read-out: Pigweed, Redroot damage rating (100=total damage to plant; 0=no damage to plant)) | pest or weed control at 250 g/ha ([9]; 250 g ai/ha, evaluated after 13 days, read-out: damage to plant, Pigweed, Redroot (100=total damage to plant; 0=no damage to plant)) | plant injury at 15.625 g/ha ([10]; 15.625 g ai/ha, evaluated after 13 days (100=total damage to plant; 0=no damage to plant), read-out: Corn damage rating) | plant injury at 62.5 g/ha ([10]; 62.5 g ai/ha, evaluated after 13 days, read-out: Corn damage rating (100=total damage to plant; 0=no damage to plant)) | plant injury at 250 g/ha ([10]; 250 g ai/ha, evaluated after 13 days, read-out: damage to plant, Corn (100=total damage to plant; 0=no damage to plant)) | pest or weed control at 15.625 g/ha ([11]; 15.625 g ai/ha, evaluated after 13 days (100=total damage to plant; 0=no damage to plant), read-out: Velvetleaf damage rating) | pest or weed control at 62.5 g/ha ([11]; 62.5 g ai/ha, evaluated after 13 days, read-out: Velvetleaf damage rating (100=total damage to plant; 0=no damage to plant)) | pest or weed control at 250 g/ha ([11]; 250 g ai/ha, evaluated after 13 days, read-out: damage to plant, Velvetleaf (100=total damage to plant; 0=no damage to plant)) | pest or weed control at 15.625 g/ha ([12]; 15.625 g ai/ha, evaluated after 13 days (100=total damage to plant; 0=no damage to plant), read-out: Foxtail, Giant damage rating) | pest or weed control at 62.5 g/ha ([12]; 62.5 g ai/ha, evaluated after 13 days, read-out: Foxtail, Giant damage rating (100=total damage to plant; 0=no damage to plant)) | pest or weed control at 250 g/ha ([12]; 250 g ai/ha, evaluated after 13 days, read-out: damage to plant, Foxtail, Giant (100=total damage to plant; 0=no damage to plant))

From patent publication US12077503B2, “Substituted cyclic amides and their use as herbicides” (FMC CORPORATION, priority 2015, dated 2024)
